# Measured values as given in patent US20060189546A1, “Compounds for treating autoimmune and demyelinating diseases” (priority 2005, published 2006).
# Test system: B-lymphocyte cells
# Assay: Cell Proliferation, B-Cell + LPS ([3H]thymidine incorporation)
# Assay type: cell-based, balb/c mice
# Details: Mus musculus
# Method: B-lymphocyte cells isolated from the spleen of balb/c mice weighing 17±1 g were used. Test compound and/or vehicle were incubated with the cells (1.5×10^6/ml) in the presence of 10 μg/ml lipopolysaccharide (LPS) in AIM-V medium pH 7.4 at 37° C. for 24 hours. [^3H]Thymidine (120 nM) was then added for an additional overnight incubation period. Thymidine incorporation was assessed by liquid scintillation counting.
# Test compound-induced suppression of cell proliferation by 50 percent or more (≧50%) relative to vehicle control response indicates significant inhibitory activity.
# [1] = B-cell, read-out: % Growth Inhibition
smiles,measurement,setting,value
"CCN(CC)CCNc1ccc2ncn3c4ccc(O)cc4c(=O)c1c23 [Symadex™, 5-[[(diethylamino)ethyl]amino]-8-hydroxyimidazo[4,5,1-de]-acridine-6-one]",inhibition at 1 µM,[1],101%
same,inhibition at 10 µM,[1],103%
same,IC50,B-Cell + LPS,38 nM
same,inhibition at 0.001 µM,"B-Cell + LPS, 1 nM, read-out: % Growth Inhibition",0%
same,inhibition at 0.01 µM,"B-Cell + LPS, 10 nM, read-out: % Growth Inhibition",38%
same,inhibition at 0.1 µM,"B-Cell + LPS, 0.1 μM, read-out: % Growth Inhibition",80%
